Measured values from patent publication US11533912B2, “Use of cinnamate compounds in the control of fungal diseases of crops” (Institute of Plant Protection, Gansu Academy of …, priority 2019, dated 2022).
Like-named read-outs stand apart in the source and are kept apart here.

How the values were obtained:
F. graminearum = test: microbe, parasite or virus in culture; format: cell-based; conditions: for inhibition at 1000 µg/mL: Fusarium graminearum, read-out: Inhibition Rate
Botrytis cinerea = test: Ex vivo mycelial growth, growth rate method; format: cell-based; conditions: 1 mg/mL
C. gossypii = test: Ex vivo mycelial growth, growth rate method; format: cell-based; conditions: 1 mg/mL; for inhibition at 1000 µg/mL: Colletotrichum gossypii
Exserohilum turcicum = test: Ex vivo mycelial growth, growth rate method; format: cell-based; conditions: 1 mg/mL
Phytophthora capsici = test: Ex vivo mycelial growth, growth rate method; format: cell-based; conditions: for antifungal activity on Phytophthora capsici compared with hymexazol: supplementary determination results
Pyricularia grisea = test: microbe, parasite or virus in culture; format: cell-based; conditions: for inhibition at 1000 µg/mL: read-out: Inhibition Rate
F. oxysporum f. sp. lini = test: Ex vivo mycelial growth, growth rate method; format: cell-based; conditions: 1 mg/mL; for inhibition at 1000 µg/mL: Fusarium oxysporum
[1] = tested on: F. oxysporum f. sp. vasinfectum; test: Ex vivo mycelial growth, growth rate method; format: cell-based; conditions: 1 mg/mL; for inhibition at 1000 µg/mL: Fusarium oxysporum
Sclerotinia sclerotiorum = test: Ex vivo mycelial growth, growth rate method; format: cell-based; conditions: 1 mg/mL
Phytophthora infestans [2] = format: cell-based; conditions: Phytophthora infestans (second line), 1 mg/mL
Mycosphaerlla melonis = test: Ex vivo mycelial growth, growth rate method; format: cell-based; conditions: 1 mg/mL
E. cichoracearum = test: Field efficiency test on cucumber powdery mildew; conditions: 0.50 mg/mL (active ingredients)
Protocol: The first application was started on Jun. 15, 2018, and E. cichoracearum was inoculated on June 17th (the diseased leaves were harvested from the solar greenhouse near the military airfield at Xiaguanying town, Yuzhong County, moisturized in the greenhouse for 2 days, then shredded, and filtered over a gauze, the filtrate was sprayed onto both sides of the cucumber leaves with the cone nozzle of an electric sprayer for inoculation). The second, third and fourth applications were conducted on June 23rd, July 2nd, and July 9th respectively, the water consumptions of which were adjusted promptly according to the amount of water desired for spraying evenly onto both sides of the control leaves. 10 days after the fourth application, the number of disease leaves at each grade of powdery mildew was investigated following the grading standard of 9 grades, to calculate the disease index and the control effect.

zucchini powdery mildew = test: Field efficiency test on zucchini powdery mildew; format: in vivo; conditions: 0.50 mg/mL
[3] = tested on: Botryosphaeriana berengeriana; test: Ex vivo mycelial growth, growth rate method (line 'Botryosphaeriana berengeriana', r23); format: cell-based; conditions: Botryosphaeriana berengeriana (first line), 1 mg/mL; for inhibition at 1000 µg/mL: mycelial growth
[4] = tested on: Botryosphaeria berengeriana; test: Ex vivo mycelial growth, growth rate method (line 'Botryosphaeria berengeriana', r34); format: cell-based; conditions: Botryosphaeria berengeriana (second line), 1 mg/mL; for inhibition at 1000 µg/mL: mycelial growth
Pythium ultimum = test: Supplementary determination of antifungal activity; conditions: supplementary determination results
Protocol: (3) Ex Vivo Bioassay Method • The inhibition of samples for testing on the mycelial growth of plant pathogenic fungi for testing is determined with a growth rate method. […] Fungal cakes with a diameter of 4 mm are taken from the edge of the colony, inoculated into the center of a PDA plate containing different agents of different concentrations and the DMSO control, with one piece of fungal cake inoculated in each plate (with a diameter of 9 mm), and incubated in a constant temperature incubator at a temperature of 22±1.5° C. 7 days later (10˜20 days may be needed for some pathogenic fungi), the diameter of the colony is measured with a cross over method according to the mycelial growth profile of the control pathogenic fungi, then the inhibition rate of mycelial growth is calculated. The computational formula is as below: the inhibition rate of mycelial growth (%)=[(the diameter of the control colony−the diameter of the treated colony)/the diameter of the control colony]×100.

Pythium aphanidermatum = test: Ex vivo mycelial growth, growth rate method; format: cell-based; conditions: 1 mg/mL; for inhibition at 1000 µg/mL: mycelial growth
Valsa mali = test: Ex vivo mycelial growth, growth rate method; format: cell-based; conditions: 1 mg/mL; for inhibition at 1000 µg/mL: Cytospora mali, mycelial growth
Colletotrichum capsici = test: Ex vivo mycelial growth, growth rate method; format: cell-based; conditions: 1 mg/mL; for inhibition at 1000 µg/mL: Colletotrichum truncatum, mycelial growth
plant pathogenic fungi = test: organism not typed; format: cell-based
[5] = tested on: Gaeumannomyces graminis var. graminis and G. graminis var. tritici; test: Ex vivo mycelial growth, growth rate method; format: cell-based; conditions: 1 mg/mL; for inhibition at 1000 µg/mL: mycelial growth
Thanatephorus cucumeris = test: Ex vivo mycelial growth, growth rate method; format: cell-based; conditions: 1 mg/mL; for inhibition at 1000 µg/mL: mycelial growth
[6] = tested on: Erysiphe cucurbitacearum or Sphaerotheca cucurbitae; test: In-vivo control of zucchini powdery mildew in a greenhouse
Protocol: (2) In-Vivo Determination Method • Zucchini (Variety: Wuwei Xianglin extra-early 1st generation) were cultured in pots in a greenhouse, and inoculated with Erysiphe cucurbitacearum or Sphaerotheca cucurbitae at the stage of 3 to 4 leaves. […] Both sides of the leaves were sprayed evenly with a small hand-held sprayer so that the leaves were wetted by the liquor without loss. Applications were conducted every 7 days consecutively for 4 times. 10 days after the fourth application, the number of disease leaves at each grade of powdery mildew was investigated for the whole plant following the grading standard of 9 grades, to calculate the disease index and the control effect. The computational formula is as below: Disease index=[(Number of disease leaves at each grade×Corresponding grade value)/(Total number of investigated leaves×9)]×100; Control effect=(Disease index of the clear water control−Treated disease index)/Disease index of the clear water control×100.

[7] = tested on: damping-off (P. aphanidermatum, P capsici); test: In-vivo control of pepper damping-off in a greenhouse (sick soil); conditions: 0.80 mg/mL, 200 mL liquor per pot
Protocol: (§1) (2) In-Vivo Determination Method • Sick soil of damping-off (P. aphanidermatum, P capsici) was collected from the fields of tomatoes, eggplants and peppers in solar greenhouse, and mixed evenly in equal proportion. Tomatoes (Variety: Song Tian Fen Yang Yang, 100 grains), eggplants (Variety: Lanza No. 2 F1 long eggplant, 100 grains), pepper (Longjiao 2 F1, 100 grains) were seeded quantitatively with the sick soil in pots (diameter: 15 cm) in a greenhouse, additionally with sterile vermiculite as the control (each 100 grains for determining the germination rate). […] The computational formula is as below: Mortality of Seedlings (%)=[number of survival seedlings in the seeded grains−number of seeded grains×(100%−germination rate)]/number of seeded grains×100; Control Effect (%)=(mortality of control seedlings−mortality of treated seedlings)/mortality of control seedlings×100.

[8] = tested on: Blumeria graminis f. sp. trilici; test: In-vivo control of wheat powdery mildew in a greenhouse; parameters: species or system Blumeria graminis f. sp. trilici on winter wheat
F. verticillioide = test: Ex vivo mycelial growth, growth rate method; format: cell-based; conditions: 1 mg/mL; for inhibition at 1000 µg/mL: mycelial growth
Coniella diplodiella = test: Ex vivo mycelial growth, growth rate method; format: cell-based; conditions: 1 mg/mL; for inhibition at 1000 µg/mL: mycelial growth
[9] = tested on: damping-off (P. aphanidermatum, P capsici); test: In-vivo control of eggplant damping-off in a greenhouse (sick soil); conditions: 0.80 mg/mL, 200 mL liquor per pot
Protocol: as §1

E. polygoni = test: In-vivo control of marrow bean powdery mildew in a greenhouse
Protocol: (2) In-Vivo Determination Method • Marrow bean (Variety: Thailand Jiadouwang) were cultured in pots in a greenhouse, and inoculated with E. polygoni at the stage of 4 leaves. […] Both sides of the leaves were sprayed evenly with a small hand-held sprayer so that the leaves were wetted by the liquor without loss. Applications were conducted every 7 days consecutively for 4 times. 10 days after the fourth application, the number of disease leaves at each grade of powdery mildew was investigated for the whole plant following the grading standard of 9 grades, to calculate the disease index and the control effect.

Rhizoctonia solani = test: Ex vivo mycelial growth, growth rate method; format: cell-based; conditions: 1 mg/mL; for inhibition at 1000 µg/mL: mycelial growth
Fusarium graminearum = test: microbe, parasite or virus in culture; format: cell-based; conditions: for Average Diameter of the Colony: Fusarium graminearum (first line), 1 mg/mL; for inhibition at 1000 µg/mL: Fusarium graminearum, read-out: Inhibition Rate
Phytophthora infestans [10] = format: cell-based; conditions: Phytophthora infestans (first line); 1 mg/mL
[11] = mycelial growth, Phytophthora capsici, 1 mg/mL
[12] = F. graminearum (second line), 1 mg/mL

Structure (SMILES): CO/C=C(/C(=O)OC)c1ccccc1Oc1cc(Oc2ccccc2C#N)ncn1 [Azoxystrobin, azoxystrobin, reference compound]
- Inhibition Rate (F. graminearum; mycelial growth, F. graminearum (second line), 1 mg/mL): 30.78%
- Inhibition Rate (Botrytis cinerea; mycelial growth): 51.89%
- Inhibition Rate (C. gossypii; mycelial growth): 40.33%
- Inhibition Rate (Exserohilum turcicum; mycelial growth): 27.78%
- Inhibition Rate (Phytophthora capsici; [11]): 25.55%
- Inhibition Rate (Pyricularia grisea; mycelial growth, 1 mg/mL): 48.11%
- Inhibition Rate (F. oxysporum f. sp. lini; mycelial growth): 34.11%
- Inhibition Rate ([1]; mycelial growth): 66.33%
- Inhibition Rate (Sclerotinia sclerotiorum; mycelial growth): 51.11%
- Inhibition Rate (Phytophthora infestans [2]; mycelial growth): 100%
- Inhibition Rate (Mycosphaerlla melonis; mycelial growth): 56.33%

Structure (SMILES): CCOC(=O)/C=C/c1ccc(OC)c(OC)c1 [ethyl 3-(3′,4′-dimethoxyphenyl) acrylate]
- control effect on cucumber powdery mildew (E. cichoracearum): 85.18%
- Control Effect (zucchini powdery mildew): 91.93%
- Average Diameter of the Colony [3]: 1.58 cm
- inhibition at 1000 µg/mL [3]: 72.3%
- Average Diameter of the Colony [4]: 2.95 cm
- inhibition at 1000 µg/mL [4]: 56.6%
- antifungal activity on Pythium ultimum compared with carbendazim (Pythium ultimum): superior to that of the control agent, carbendazim
- Average Diameter of the Colony (F. graminearum; [12]): 2.74 cm
- inhibition at 1000 µg/mL (F. graminearum): 68.1%
- Average Diameter of the Colony (Pythium aphanidermatum): 0.73 cm
- inhibition at 1000 µg/mL (Pythium aphanidermatum): 89.1%
- Average Diameter of the Colony (Botrytis cinerea): 0.61 cm
- inhibition at 1000 µg/mL (Botrytis cinerea; mycelial growth): 91.9%
- Average Diameter of the Colony (Valsa mali): 0.00 cm
- inhibition at 1000 µg/mL (Valsa mali): 100%
- Average Diameter of the Colony (C. gossypii): 1.33 cm
- inhibition at 1000 µg/mL (C. gossypii; mycelial growth): 75.4%
- Average Diameter of the Colony (Colletotrichum capsici): 0.83 cm
- inhibition at 1000 µg/mL (Colletotrichum capsici): 87.8%
- Average Diameter of the Colony (Exserohilum turcicum): 0.56 cm
- inhibition at 1000 µg/mL (Exserohilum turcicum; mycelial growth): 91%
- inhibition at 1000 µg/mL (plant pathogenic fungi; read-out: inhibition rate on mycelial growth, range over 12 fungi): 84.4 to 100%
- Average Diameter of the Colony [5]: 2.56 cm
- inhibition at 1000 µg/mL [5]: 64.2%
- Average Diameter of the Colony (Phytophthora capsici; Phytophthora capsici, 1 mg/mL): 0.75 cm
- inhibition at 1000 µg/mL (Phytophthora capsici; [11]): 85.8%
- antifungal activity on Phytophthora capsici compared with hymexazol (Phytophthora capsici): superior to that of the control agent, hymexazol
- Average Diameter of the Colony (Thanatephorus cucumeris): 0.94 cm
- inhibition at 1000 µg/mL (Thanatephorus cucumeris): 89.1%
- Average Diameter of the Colony (Pyricularia grisea; 1 mg/mL): 5.47 cm
- inhibition at 1000 µg/mL (Pyricularia grisea): 39.2%
- Control Effect ([6]; 0.20 mg/mL): 81.83%
- Control Effect ([6]; 0.333 mg/mL): 95.52%
- Control Effect ([6]; 0.50 mg/mL): 98.63%
- control effect on pepper damping-off [7]: 64.57%
- Control Effect ([8]; 0.143 mg/mL): 79.47%
- Control Effect ([8]; 0.20 mg/mL): 91.55%
- Average Diameter of the Colony (F. verticillioide): 2.28 cm
- inhibition at 1000 µg/mL (F. verticillioide): 32.5%
- Average Diameter of the Colony (F. oxysporum f. sp. lini): 6.17 cm
- inhibition at 1000 µg/mL (F. oxysporum f. sp. lini; mycelial growth): 31.4%
- Average Diameter of the Colony (Coniella diplodiella): 0.00 cm
- inhibition at 1000 µg/mL (Coniella diplodiella): 100%
- control effect on eggplant damping-off [9]: 48.71%
- Control Effect (E. polygoni; 0.10 mg/mL): 83.69%
- Control Effect (E. polygoni; 0.143 mg/mL): 97.09%
- Control Effect (E. polygoni; 0.20 mg/mL): 100%
- Average Diameter of the Colony [1]: 2.68 cm
- inhibition at 1000 µg/mL ([1]; mycelial growth): 63%
- Average Diameter of the Colony (Sclerotinia sclerotiorum): 1.34 cm
- inhibition at 1000 µg/mL (Sclerotinia sclerotiorum; mycelial growth): 84.4%
- Average Diameter of the Colony (Phytophthora infestans [2]): 0.00 cm
- Average Diameter of the Colony (Rhizoctonia solani): 0.00 cm
- inhibition at 1000 µg/mL (Rhizoctonia solani): 100%
- Average Diameter of the Colony (Fusarium graminearum): 1.40 cm
- inhibition at 1000 µg/mL (Fusarium graminearum): 73.8%
- Average Diameter of the Colony (Mycosphaerlla melonis): 0.05 cm
- inhibition at 1000 µg/mL (Mycosphaerlla melonis; mycelial growth): 99.4%
- Average Diameter of the Colony (Phytophthora infestans [10]): 1.33 cm

Structure (SMILES): CCOC(=O)/C=C/c1ccc2c(c1)OCO2
- control effect on cucumber powdery mildew (E. cichoracearum): 80.95%
- Control Effect (zucchini powdery mildew): 85.56%
- Average Diameter of the Colony [3]: 4.20 cm
- inhibition at 1000 µg/mL [3]: 26.3%
- Average Diameter of the Colony [4]: 3.45 cm
- inhibition at 1000 µg/mL [4]: 49.3%
- Average Diameter of the Colony (F. graminearum; [12]): 1.73 cm
- inhibition at 1000 µg/mL (F. graminearum): 79.9%
- Average Diameter of the Colony (Pythium aphanidermatum): 2.60 cm
- inhibition at 1000 µg/mL (Pythium aphanidermatum): 61.2%
- Average Diameter of the Colony (Botrytis cinerea): 2.17 cm
- inhibition at 1000 µg/mL (Botrytis cinerea; mycelial growth): 71%
- Average Diameter of the Colony (Valsa mali): 0.00 cm
- inhibition at 1000 µg/mL (Valsa mali): 100%
- Average Diameter of the Colony (C. gossypii): 1.74 cm
- inhibition at 1000 µg/mL (C. gossypii; mycelial growth): 67.8%
- Average Diameter of the Colony (Colletotrichum capsici): 1.49 cm
- inhibition at 1000 µg/mL (Colletotrichum capsici): 78%
- Average Diameter of the Colony (Exserohilum turcicum): 1.52 cm
- inhibition at 1000 µg/mL (Exserohilum turcicum; mycelial growth): 75.5%
- inhibition at 1000 µg/mL (plant pathogenic fungi; read-out: inhibition rate on mycelial growth, range over 5 fungi): 88.8 to 100%
- Average Diameter of the Colony [5]: 2.45 cm
- inhibition at 1000 µg/mL [5]: 65.7%
- Average Diameter of the Colony (Phytophthora capsici; Phytophthora capsici, 1 mg/mL): 1.42 cm
- inhibition at 1000 µg/mL (Phytophthora capsici; [11]): 73.2%
- antifungal activity on Phytophthora capsici compared with hymexazol (Phytophthora capsici): superior to that of the control agent, hymexazol
- Average Diameter of the Colony (Thanatephorus cucumeris): 3.75 cm
- inhibition at 1000 µg/mL (Thanatephorus cucumeris): 56.4%
- Average Diameter of the Colony (Pyricularia grisea; 1 mg/mL): 2.70 cm
- inhibition at 1000 µg/mL (Pyricularia grisea): 25.6%
- Control Effect ([6]; 0.20 mg/mL): 77.06%
- Control Effect ([6]; 0.333 mg/mL): 96.21%
- Control Effect ([6]; 0.50 mg/mL): 97.93%
- control effect on pepper damping-off [7]: 52%
- Control Effect ([8]; 0.143 mg/mL): 74.28%
- Control Effect ([8]; 0.20 mg/mL): 77.65%
- Average Diameter of the Colony (F. verticillioide): 2.91 cm
- inhibition at 1000 µg/mL (F. verticillioide): 13.9%
- Average Diameter of the Colony (F. oxysporum f. sp. lini): 6.97 cm
- inhibition at 1000 µg/mL (F. oxysporum f. sp. lini; mycelial growth): 22.6%
- Average Diameter of the Colony (Coniella diplodiella): 0.00 cm
- inhibition at 1000 µg/mL (Coniella diplodiella): 100%
- control effect on eggplant damping-off [9]: 53.63%
- Control Effect (E. polygoni; 0.10 mg/mL): 75.92%
- Control Effect (E. polygoni; 0.143 mg/mL): 95.20%
- Control Effect (E. polygoni; 0.20 mg/mL): 95.49%
- Average Diameter of the Colony [1]: 2.58 cm
- inhibition at 1000 µg/mL ([1]; mycelial growth): 64.4%
- Average Diameter of the Colony (Sclerotinia sclerotiorum): 4.71 cm
- inhibition at 1000 µg/mL (Sclerotinia sclerotiorum; mycelial growth): 45.2%
- Average Diameter of the Colony (Phytophthora infestans [2]): 0.00 cm
- Average Diameter of the Colony (Rhizoctonia solani): 0.80 cm
- inhibition at 1000 µg/mL (Rhizoctonia solani): 88.8%
- Average Diameter of the Colony (Fusarium graminearum): 3.00 cm
- inhibition at 1000 µg/mL (Fusarium graminearum): 43.9%
- Average Diameter of the Colony (Mycosphaerlla melonis): 0.75 cm
- inhibition at 1000 µg/mL (Mycosphaerlla melonis; mycelial growth): 91.3%
- Average Diameter of the Colony (Phytophthora infestans [10]): 2.01 cm
